Experiment [1] has as its target T1, Human PDGFRα, cytoplasmic domain (GST-PDGFRα) (Homo sapiens, UniProt P16234).
T1 construct: made in house
As to the kind of experiment: Human PDGFRα biochemical inhibition assay (off-chip Mobility Shift Assay).

Experiment [2] deals with T2, Human PDGFRβ, cytoplasmic domain (GST-PDGFRβ) (Homo sapiens, UniProt P09619).
T2 construct: made in house
Kind of experiment: Human PDGFRβ biochemical inhibition assay (off-chip Mobility Shift Assay). The method, boiled down: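 GST-tagged cytoplasmic domain (aa 557-1106) from baculovirus was incubated 1 h at room temperature with compound, CSKtide, ATP at Km and Mg²⁺ in HEPES buffer, pH 7.5. Phosphorylated and unphosphorylated peptide were separated by off-chip mobility shift, and the product ratio P/(P+S) gave percent inhibition.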

T2 sequence (P09619 with tags, fused parts or gaps): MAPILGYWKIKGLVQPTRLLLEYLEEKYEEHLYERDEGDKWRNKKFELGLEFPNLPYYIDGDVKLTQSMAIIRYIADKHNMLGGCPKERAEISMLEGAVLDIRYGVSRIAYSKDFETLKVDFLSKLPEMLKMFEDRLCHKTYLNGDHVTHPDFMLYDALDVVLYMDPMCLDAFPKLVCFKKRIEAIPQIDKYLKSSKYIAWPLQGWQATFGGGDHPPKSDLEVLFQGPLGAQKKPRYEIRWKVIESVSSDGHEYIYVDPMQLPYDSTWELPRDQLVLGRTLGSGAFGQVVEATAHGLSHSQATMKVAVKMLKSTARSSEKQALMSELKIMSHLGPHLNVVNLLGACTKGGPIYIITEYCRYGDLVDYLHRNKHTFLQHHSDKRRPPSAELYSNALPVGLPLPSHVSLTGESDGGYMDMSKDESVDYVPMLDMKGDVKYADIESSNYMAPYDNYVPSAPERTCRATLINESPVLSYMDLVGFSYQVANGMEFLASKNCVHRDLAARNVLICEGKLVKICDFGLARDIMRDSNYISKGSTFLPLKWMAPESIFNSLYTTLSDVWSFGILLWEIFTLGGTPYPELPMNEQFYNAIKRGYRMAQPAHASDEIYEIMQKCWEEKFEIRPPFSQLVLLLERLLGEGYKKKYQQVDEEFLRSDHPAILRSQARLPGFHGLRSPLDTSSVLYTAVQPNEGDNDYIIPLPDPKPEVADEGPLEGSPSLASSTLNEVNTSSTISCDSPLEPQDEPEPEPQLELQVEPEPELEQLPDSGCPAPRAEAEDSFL
T1 sequence (P16234 550-1089 T674I): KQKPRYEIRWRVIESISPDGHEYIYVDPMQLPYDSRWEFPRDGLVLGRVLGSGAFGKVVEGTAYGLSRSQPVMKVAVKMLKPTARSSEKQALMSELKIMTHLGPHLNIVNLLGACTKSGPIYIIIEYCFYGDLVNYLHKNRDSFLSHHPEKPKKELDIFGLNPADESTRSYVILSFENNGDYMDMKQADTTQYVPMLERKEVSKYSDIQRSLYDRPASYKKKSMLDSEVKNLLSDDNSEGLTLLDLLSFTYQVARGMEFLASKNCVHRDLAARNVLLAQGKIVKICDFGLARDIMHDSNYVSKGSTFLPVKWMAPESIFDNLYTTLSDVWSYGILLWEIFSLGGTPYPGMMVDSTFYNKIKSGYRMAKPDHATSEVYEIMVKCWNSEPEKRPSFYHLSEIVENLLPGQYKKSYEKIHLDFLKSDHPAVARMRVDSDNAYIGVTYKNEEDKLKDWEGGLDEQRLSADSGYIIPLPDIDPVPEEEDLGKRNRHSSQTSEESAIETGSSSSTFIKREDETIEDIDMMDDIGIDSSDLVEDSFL

As to `CCn1cc2ncc(N[C@@H](C)c3cc(NC(=O)c4ccc(N5CCN(C)CC5)c(C)c4)ccc3F)nc2n1` [Compound 412, (S)-N-(3-(1-((2-ethyl-2H-pyrazolo[3,4-b]pyrazin-6-yl)amino)ethyl)-4-fluorophenyl)-3-methyl-4-(4-methylpiperazin-1-yl)benzamide], the IC50 in experiment [1] and in experiment [2] was less than 300 nM throughout.

For `Cc1cc(C(=O)Nc2cccc([C@H](C)Nc3cnc4[nH]cc(-c5cnn(C)c5)c4n3)c2)cnc1N1CCCC1` [Compound 577, (S)-5-methyl-N-(3-(1-((7-(1-methyl-1H-pyrazol-4-yl)-5H-pyrrolo[2,3-b]pyrazin-2-yl)amino)ethyl)phenyl)-6-(pyrrolidin-1-yl)nicotinamide], the IC50 in experiment [1] and in experiment [2] was less than 300 nM in each case.

For `CCn1cc2ncc(N[C@@H](C)c3cccc(NC(=O)c4cncc(C(C)(C)F)c4)c3)nc2n1` [Compound 280, (S)-N-(3-(1-((2-ethyl-2H-pyrazolo[3,4-b]pyrazin-6-yl)amino)ethyl)phenyl)-5-(2-fluoropropan-2-yl)nicotinamide], the IC50 in experiment [1] and in experiment [2] was less than 300 nM throughout.

Regarding `CCn1cc2ncc(N[C@@H](C)c3cc(NC(=O)c4ccc(C(F)(F)F)nc4)cc(F)c3F)nc2n1` [Compound 491, (S)-N-(3-(1-((2-ethyl-2H-pyrazolo[3,4-b]pyrazin-6-yl)amino)ethyl)-4,5-difluorophenyl)-6-(trifluoromethyl)nicotinamide], the IC50 in experiment [1] and in experiment [2] was 300 to 1000 nM each time.

In the case of `CCn1cc2ncc(N[C@@H](C)c3cccc(NC(=O)c4cnc(CO)s4)c3)nc2n1` [Compound 363, (S)-N-(3-(1-((2-ethyl-2H-pyrazolo[3,4-b]pyrazin-6-yl)amino)ethyl)phenyl)-2-(hydroxymethyl)thiazole-5-carboxamide], the IC50 in experiment [1] and in experiment [2] was no less than 1000 nM each time.

As for `CCn1cc2ncc(N[C@@H](C)c3cccc(NC(=O)Cc4ccc5c(n4)CCC5)c3)nc2n1` [Compound 718, (S)-2-(6,7-dihydro-5H-cyclopenta[b]pyridin-2-yl)-N-(3-(1-((2-ethyl-2H-pyrazolo[3,4-b]pyrazin-6-yl)amino)ethyl)phenyl)acetamide], the IC50 in experiment [1] is less than 300 nM; in experiment [2], no less than 1000 nM.

Regarding `CCn1cc2ncc(N[C@@H](C)c3cccc(NC(=O)c4ccc(CN5CCOCC5)c(Cl)c4)c3)nc2n1` [Compound 416, (S)-3-chloro-N-(3-(1-((2-ethyl-2H-pyrazolo[3,4-b]pyrazin-6-yl)amino)ethyl)phenyl)-4-(morpholinomethyl)benzamide], the IC50 in experiment [1] and in experiment [2] was less than 300 nM each time.

Regarding `CCn1cc2ncc(N[C@@H](C)c3cccc(NC(=O)c4ccc(CN5CC[C@@H](O)C5)c(Cl)c4)c3)nc2n1` [Compound 483, 3-chloro-N-(3-((S)-1-((2-ethyl-2H-pyrazolo[3,4-b]pyrazin-6-yl)amino)ethyl)phenyl)-4-(((R)-3-hydroxypyrrolidin-1-yl)methyl) benzamide], the IC50 in experiment [1] and in experiment [2] was less than 300 nM each time.

Regarding `C[C@H](Nc1cnc2cnn(C)c2n1)c1cccc(NC(=O)c2ccc(S(C)(=O)=O)cc2)c1` [Compound 220, (S)-N-(3-(1-((1-methyl-1H-pyrazolo[3,4-b]pyrazin-6-yl)amino)ethyl)phenyl)-4-(methylsulfonyl)benzamide], the IC50 in experiment [1] was less than 300 nM; in experiment [2], 300 to 1000 nM.

As to `Cc1n[nH]c2ncc(N[C@@H](C)c3cccc(NC(=O)c4ccc(C(F)F)s4)c3)nc12` [Compound 539, (S)-5-(difluoromethyl)-N-(3-(1-((3-methyl-1H-pyrazolo[3,4-b]pyrazin-5-yl)amino)ethyl)phenyl)thiophene-2-carboxamide], the IC50 in experiment [1] and in experiment [2] was less than 300 nM in each case.

On to `C[C@H](Nc1cnc2cnn(C)c2n1)c1cccc(NC(=O)c2ccc3c(c2)OCCO3)c1` [Compound 68, (S)-N-(3-(1-((1-methyl-1H-pyrazolo[3,4-b]pyrazin-6-yl)amino)ethyl)phenyl)-2,3-dihydrobenzo[b][1,4]dioxine-6-carboxamide], for which the IC50 in experiment [1] and in experiment [2] was less than 300 nM each time.
